Counter-ions that a name gives are not always drawn.
Experiments:
[1] = target: human VAP-1 enzyme (SSAO) (Homo sapiens (Human), UniProt Q16853); assay: Inhibitory effect on human VAP-1 enzyme (SSAO) activity, radiochemistry-enzymatic assay with 14C-benzylamine; format: biochemical; conditions: CHO-expressed human VAP-1, 14C-benzylamine 1×10^−5 mol/L
Experimental: (§1) After homogenizing CHO (Chinese Hamster Ovary) cells stably expressing a human VAP-1 enzyme (SSAO) in a 50 mM phosphate buffer containing 1% NP-40, an enzyme suspension was obtained by taking the supernatant obtained by centrifugation. The enzyme suspension was preincubated with the compound of the present invention in a 96-well microplate at room temperature for 30 minutes. Subsequently, the enzyme suspension was incubated with ^14C-benzylamine (a final concentration of 1×10^−5 mol/L) to a final volume of […] at 37° C. for 1 hour. The enzymatic reaction was stopped by the addition of 2 mol/L (50 pt) of citric acid.

rat VAP-1 enzyme (SSAO) = rat VAP-1 enzyme (SSAO) (Rattus norvegicus (Rat), UniProt O08590); assay: Inhibitory effect on rat VAP-1 enzyme (SSAO) activity, radiochemistry-enzymatic assay with 14C-benzylamine; format: biochemical; conditions: CHO-expressed rat VAP-1, 14C-benzylamine 1×10^−5 mol/L
Experimental: as §1, with “rat” for “human”, “μL)” for “pt)”, “acid. The oxidation products were extracted directly in a 200 μL toluene scintillator, and the radioactivity was measured with a scintillation spectrometer.” for “acid.”

[2] = tested on: VAP-1 enzyme (SSAO) activity in rat plasma; assay: Inhibitory effect on rat VAP-1 enzyme (SSAO) activity in rat plasma after oral administration; format: in vivo, Wistar male rats; conditions: rat plasma VAP-1 activity, oral 0.3 mg/kg; for Inhibition Ratio (%) 1 h: 1 h after administration; for Inhibition Ratio (%) 3 h: 3 h after administration; for Inhibition Ratio (%) 6 h: 6 h after administration; for Inhibition Ratio (%) 24 h: 24 h after administration; for Inhibition Ratio (%) 12 h: 12 h after administration
Experimental: Eight-week to twelve-week Wistar male rats were fasted for 20 hours, and orally administered with a test drug ([…]). Heparin blood collection from the tail vein was performed immediately before the administration, and at 1 h, 3 h, 6 h, 12 h, or 24 h after the administration. The resulting blood was subjected to centrifugation at 14000 rpm for 5 minutes to separate plasma, and the VAP-1 enzyme activity in the resulting plasma was measured by a radio-enzyme assay method.
For the radio-enzyme assay method, ^14C-benzylamine which is a synthetic substrate (10 μM) was reacted with the resulting plasma at 37° C., and the resulting metabolite was extracted with a mixture of toluene/ethyl acetate. The radioactivity was measured and taken as a VAP-1 enzyme activity in the plasma. The effect of the test drug was calculated from the inhibitory ratio (%) of the VAP-1 activity after the administration of the test drug relative to the VAP-1 activity in the plasma immediately before the administration.

Chain of human VAP-1 enzyme (SSAO) (Q16853 whole entry): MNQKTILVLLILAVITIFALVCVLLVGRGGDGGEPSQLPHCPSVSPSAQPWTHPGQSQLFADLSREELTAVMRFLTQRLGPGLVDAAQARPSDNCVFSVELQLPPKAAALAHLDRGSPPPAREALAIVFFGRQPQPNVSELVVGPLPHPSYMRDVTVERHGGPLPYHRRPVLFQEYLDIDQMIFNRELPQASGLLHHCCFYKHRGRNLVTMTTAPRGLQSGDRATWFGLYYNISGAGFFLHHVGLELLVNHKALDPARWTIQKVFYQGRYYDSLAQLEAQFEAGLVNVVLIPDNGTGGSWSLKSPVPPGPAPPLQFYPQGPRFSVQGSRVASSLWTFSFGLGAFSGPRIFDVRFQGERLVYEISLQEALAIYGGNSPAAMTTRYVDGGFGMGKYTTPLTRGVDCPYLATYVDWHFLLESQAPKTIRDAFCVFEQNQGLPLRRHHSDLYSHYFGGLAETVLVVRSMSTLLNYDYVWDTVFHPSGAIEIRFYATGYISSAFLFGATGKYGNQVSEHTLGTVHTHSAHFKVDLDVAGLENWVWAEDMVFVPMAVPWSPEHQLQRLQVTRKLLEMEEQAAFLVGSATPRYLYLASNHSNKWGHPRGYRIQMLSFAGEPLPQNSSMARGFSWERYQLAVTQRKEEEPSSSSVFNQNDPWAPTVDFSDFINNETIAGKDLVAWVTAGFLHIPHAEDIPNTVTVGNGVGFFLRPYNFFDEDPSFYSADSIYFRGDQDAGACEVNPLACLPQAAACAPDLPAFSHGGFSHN
Chain of rat VAP-1 enzyme (SSAO) (O08590 whole entry): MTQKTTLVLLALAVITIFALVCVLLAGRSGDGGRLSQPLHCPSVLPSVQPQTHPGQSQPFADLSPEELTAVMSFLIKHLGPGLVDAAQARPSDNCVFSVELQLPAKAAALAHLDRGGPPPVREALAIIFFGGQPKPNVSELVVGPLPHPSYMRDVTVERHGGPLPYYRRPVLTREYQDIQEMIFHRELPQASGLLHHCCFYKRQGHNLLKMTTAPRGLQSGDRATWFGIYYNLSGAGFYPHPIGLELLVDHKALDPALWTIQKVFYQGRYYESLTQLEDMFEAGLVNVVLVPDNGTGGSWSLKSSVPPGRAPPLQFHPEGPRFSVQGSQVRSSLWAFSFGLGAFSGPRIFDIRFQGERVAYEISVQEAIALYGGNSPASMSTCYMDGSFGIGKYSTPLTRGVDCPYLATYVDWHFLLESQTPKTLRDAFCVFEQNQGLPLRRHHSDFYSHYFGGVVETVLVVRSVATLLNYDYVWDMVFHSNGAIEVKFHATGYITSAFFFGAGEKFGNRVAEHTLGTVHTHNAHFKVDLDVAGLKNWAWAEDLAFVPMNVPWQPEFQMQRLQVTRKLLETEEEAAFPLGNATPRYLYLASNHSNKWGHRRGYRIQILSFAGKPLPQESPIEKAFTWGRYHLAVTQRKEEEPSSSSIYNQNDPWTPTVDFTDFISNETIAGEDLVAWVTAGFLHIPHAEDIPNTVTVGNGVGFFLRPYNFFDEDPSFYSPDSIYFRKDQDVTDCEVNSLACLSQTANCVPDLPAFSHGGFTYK

## COCc1ccc(N2CCN(c3cccc(COC(=O)NC(=N)N)c3F)CC2)cn1 [Example 554]
[1]
  IC50: 21 nM
Rat VAP-1 enzyme (SSAO)
  IC50: 0.97 nM
[2]
  Inhibition Ratio (%) 1 h: 99%
  Inhibition Ratio (%) 3 h: 100%
  Inhibition Ratio (%) 6 h: 87%
  Inhibition Ratio (%) 24 h: 72%

## N=C(N)NC(=O)OCc1cccc(-c2cnc(OCC3CCN(C(=O)C4CC4)CC3)nc2)c1F [Example 74]
[1]
  IC50: 5.3 nM
Rat VAP-1 enzyme (SSAO)
  IC50: 1.8 nM
[2]
  Inhibition Ratio (%) 1 h: 79%
  Inhibition Ratio (%) 3 h: 74%
  Inhibition Ratio (%) 6 h: 81%
  Inhibition Ratio (%) 24 h: 40%

## CC1(O)CCN(c2ncc(N3CCN(c4cccc(COC(=O)NC(=N)N)c4F)CC3)cn2)CC1 [Example 110]
[1]
  IC50: 32 nM
Rat VAP-1 enzyme (SSAO)
  IC50: 1.4 nM
[2]
  Inhibition Ratio (%) 1 h: 96%
  Inhibition Ratio (%) 3 h: 96%
  Inhibition Ratio (%) 6 h: 95%
  Inhibition Ratio (%) 24 h: 75%

## COCC(=O)N1CCC(C2CN(c3cccc(COC(=O)NC(=N)N)c3F)C2)CC1 [Example 562]
[1]
  IC50: 14 nM
Rat VAP-1 enzyme (SSAO)
  IC50: 1.4 nM
[2]
  Inhibition Ratio (%) 1 h: 79%
  Inhibition Ratio (%) 3 h: 81%
  Inhibition Ratio (%) 6 h: 78%
  Inhibition Ratio (%) 24 h: 37%

## N=C(N)NC(=O)OCc1cccc(N2CCN(C(=O)CC3CCOCC3)CC2)c1F [Example 273]
[1]
  IC50: 19 nM
Rat VAP-1 enzyme (SSAO)
  IC50: 0.95 nM
[2]
  Inhibition Ratio (%) 1 h: 55%
  Inhibition Ratio (%) 3 h: 74%
  Inhibition Ratio (%) 6 h: 54%
  Inhibition Ratio (%) 24 h: 19%

## CC(=O)N1CCC(OC2CCN(c3cccc(COC(=O)NC(=N)N)c3F)CC2)CC1 [Example 220]
[1]
  IC50: 25 nM
Rat VAP-1 enzyme (SSAO)
  IC50: 1 nM
[2]
  Inhibition Ratio (%) 1 h: 80%
  Inhibition Ratio (%) 3 h: 80%
  Inhibition Ratio (%) 6 h: 84%
  Inhibition Ratio (%) 24 h: 27%

## N=C(N)NC(=O)OCc1cccc(N2CCC(c3ccncc3)CC2)c1F [Example 52]
[1]
  IC50: 23 nM
Rat VAP-1 enzyme (SSAO)
  IC50: 1.7 nM
[2]
  Inhibition Ratio (%) 1 h: 90%
  Inhibition Ratio (%) 3 h: 68%
  Inhibition Ratio (%) 6 h: 52%
  Inhibition Ratio (%) 12 h: 37%

## CCC(=O)N1CCC(OC2CN(c3cccc(COC(=O)NC(=N)N)c3F)C2)CC1 [Example 551]
[1]
  IC50: 14 nM
Rat VAP-1 enzyme (SSAO)
  IC50: 1.8 nM
[2]
  Inhibition Ratio (%) 1 h: 68%
  Inhibition Ratio (%) 3 h: 59%
  Inhibition Ratio (%) 6 h: 51%
  Inhibition Ratio (%) 24 h: 5%

## CCC(=O)N1CCC(C2CN(c3cccc(COC(=O)NC(=N)N)c3F)C2)CC1 [Example 560]
[1]
  IC50: 9 nM
Rat VAP-1 enzyme (SSAO)
  IC50: 1.4 nM
[2]
  Inhibition Ratio (%) 1 h: 89%
  Inhibition Ratio (%) 3 h: 91%
  Inhibition Ratio (%) 6 h: 84%
  Inhibition Ratio (%) 24 h: 58%

## CCS(=O)(=O)N1CCN(c2cccc(COC(=O)NC(=N)N)c2F)CC1 [Example 157]
[1]
  IC50: 49 nM
Rat VAP-1 enzyme (SSAO)
  IC50: 2.1 nM
[2]
  Inhibition Ratio (%) 1 h: 95%
  Inhibition Ratio (%) 3 h: 91%
  Inhibition Ratio (%) 6 h: 80%
  Inhibition Ratio (%) 24 h: 39%

## CC(=O)N1CCC(C2CN(c3cccc(COC(=O)NC(=N)N)c3F)C2)CC1 [Example 559]
[1]
  IC50: 4.3 nM
Rat VAP-1 enzyme (SSAO)
  IC50: 0.81 nM
[2]
  Inhibition Ratio (%) 1 h: 86%
  Inhibition Ratio (%) 3 h: 89%
  Inhibition Ratio (%) 6 h: 82%
  Inhibition Ratio (%) 24 h: 59%

## CS(=O)(=O)N1CCC(C2CN(c3cccc(COC(=O)NC(=N)N)c3F)C2)CC1 [Example 564]
[1]
  IC50: 19 nM
Rat VAP-1 enzyme (SSAO)
  IC50: 1.5 nM
[2]
  Inhibition Ratio (%) 1 h: 89%
  Inhibition Ratio (%) 3 h: 90%
  Inhibition Ratio (%) 6 h: 85%
  Inhibition Ratio (%) 24 h: 59%

## N=C(N)NC(=O)NCc1cccc(-c2cnc(N3CCOCC3)nc2)c1 [Example 322]
[1]
  IC50: 51 nM
Rat VAP-1 enzyme (SSAO)
  IC50: 22 nM
[2]
  Inhibition Ratio (%) 1 h: 40%
  Inhibition Ratio (%) 3 h: 55%
  Inhibition Ratio (%) 6 h: 50%
  Inhibition Ratio (%) 12 h: 38%

## N=C(N)NC(=O)OCc1cccc(N2CCN(c3ccn4ccnc4c3)CC2)c1F [Example 556]
[1]
  IC50: 2.7 nM
Rat VAP-1 enzyme (SSAO)
  IC50: 1.3 nM
[2]
  Inhibition Ratio (%) 1 h: 55%
  Inhibition Ratio (%) 3 h: 70%
  Inhibition Ratio (%) 6 h: 46%
  Inhibition Ratio (%) 24 h: 19%

## N=C(N)NC(=O)OCc1cccc(N2CC(C3CCN(C(=O)C4CC4)CC3)C2)c1F [Example 561]
[1]
  IC50: 9.6 nM
Rat VAP-1 enzyme (SSAO)
  IC50: 1.6 nM
[2]
  Inhibition Ratio (%) 1 h: 91%
  Inhibition Ratio (%) 3 h: 92%
  Inhibition Ratio (%) 6 h: 85%
  Inhibition Ratio (%) 24 h: 64%

## COCCC(=O)N1CCC(C2CN(c3cccc(COC(=O)NC(=N)N)c3F)C2)CC1 [Example 563]
[1]
  IC50: 20 nM
Rat VAP-1 enzyme (SSAO)
  IC50: 1.5 nM
[2]
  Inhibition Ratio (%) 1 h: 69%
  Inhibition Ratio (%) 3 h: 77%
  Inhibition Ratio (%) 6 h: 70%
  Inhibition Ratio (%) 24 h: 43%

## COC1CN(c2ncc(N3CCN(c4cccc(COC(=O)NC(=N)N)c4F)CC3)cn2)C1 [Example 316, 2-fluoro-3-{4-[2-(3-methoxyazetidin-1-yl)pyrimidin-5-yl]piperazin-1-yl}benzyl carbamimidoylcarbamate trihydrochloride]
[1]
  IC50: 11 nM
Rat VAP-1 enzyme (SSAO)
  IC50: 0.9 nM
[2]
  Inhibition Ratio (%) 1 h: 91%
  Inhibition Ratio (%) 3 h: 99%
  Inhibition Ratio (%) 6 h: 98%
  Inhibition Ratio (%) 12 h: 91%

## CC(=O)N1CCC(COc2ncc(-c3cccc(CNC(=O)NC(=N)N)c3F)cn2)CC1 [Example 105]
[1]
  IC50: 14 nM
Rat VAP-1 enzyme (SSAO)
  IC50: 2.6 nM
[2]
  Inhibition Ratio (%) 1 h: 22%
  Inhibition Ratio (%) 3 h: 38%
  Inhibition Ratio (%) 6 h: 31%
  Inhibition Ratio (%) 24 h: 6%

## COCc1ccc(OC2CN(c3cccc(COC(=O)NC(=N)N)c3F)C2)cn1 [Example 553]
[1]
  IC50: 20 nM
Rat VAP-1 enzyme (SSAO)
  IC50: 3 nM
[2]
  Inhibition Ratio (%) 1 h: 67%
  Inhibition Ratio (%) 3 h: 57%
  Inhibition Ratio (%) 6 h: 50%
  Inhibition Ratio (%) 24 h: 40%

## CC(=O)Nc1nc(CCc2cccc(CNC(=O)NC(=N)N)c2)cs1.Cl [Example 83]
[1]
  IC50: 25 nM
Rat VAP-1 enzyme (SSAO)
  IC50: 1.9 nM
[2]
  Inhibition Ratio (%) 1 h: 34%
  Inhibition Ratio (%) 3 h: 66%
  Inhibition Ratio (%) 6 h: 86%
  Inhibition Ratio (%) 12 h: 53%

## COc1ncc(N2CCN(c3cccc(COC(=O)NC(=N)N)c3F)CC2)cn1 [Example 126]
[1]
  IC50: 15 nM
Rat VAP-1 enzyme (SSAO)
  IC50: 0.53 nM
[2]
  Inhibition Ratio (%) 1 h: 98%
  Inhibition Ratio (%) 3 h: 97%
  Inhibition Ratio (%) 6 h: 97%
  Inhibition Ratio (%) 24 h: 69%

## Cl.N=C(N)NC(=O)OCc1cccc(-c2cnc(N3CCOCC3)nc2)c1F [Example 81]
[1]
  IC50: 9.7 nM
Rat VAP-1 enzyme (SSAO)
  IC50: 3.9 nM
[2]
  Inhibition Ratio (%) 1 h: 78%
  Inhibition Ratio (%) 3 h: 78%
  Inhibition Ratio (%) 6 h: 78%
  Inhibition Ratio (%) 12 h: 53%

## Cc1ccc(N2CCN(c3cccc(COC(=O)NC(=N)N)c3F)CC2)cn1 [Example 300]
[1]
  IC50: 19 nM
Rat VAP-1 enzyme (SSAO)
  IC50: 1.7 nM
[2]
  Inhibition Ratio (%) 1 h: 92%
  Inhibition Ratio (%) 3 h: 93%
  Inhibition Ratio (%) 6 h: 88%
  Inhibition Ratio (%) 24 h: 85%

## N=C(N)NC(=O)OCc1cccc(-c2cnc(N3CC[C@H](F)C3)nc2)c1 [Example 178]
[1]
  IC50: 33 nM
Rat VAP-1 enzyme (SSAO)
  IC50: 4.4 nM
[2]
  Inhibition Ratio (%) 1 h: 63%
  Inhibition Ratio (%) 3 h: 73%
  Inhibition Ratio (%) 6 h: 67%
  Inhibition Ratio (%) 12 h: 80%

## N=C(N)NC(=O)OCc1cccc(N2CCN(c3cnc(N4CC[C@@H](F)C4)nc3)CC2)c1F [Example 118]
[1]
  IC50: 29 nM
Rat VAP-1 enzyme (SSAO)
  IC50: 1.7 nM
[2]
  Inhibition Ratio (%) 1 h: 87%
  Inhibition Ratio (%) 3 h: 86%
  Inhibition Ratio (%) 6 h: 88%
  Inhibition Ratio (%) 24 h: 59%

## N=C(N)NC(=O)OCc1cccc(N2CCN(c3cccnc3)CC2)c1F [Example 293]
Rat VAP-1 enzyme (SSAO)
  IC50: 0.97 nM

## COCc1cc(N2CCN(c3cccc(COC(=O)NC(=N)N)c3F)CC2)ccn1 [Example 566]
[1]
  IC50: 6.3 nM
Rat VAP-1 enzyme (SSAO)
  IC50: 1.2 nM
[2]
  Inhibition Ratio (%) 1 h: 75%
  Inhibition Ratio (%) 3 h: 74%
  Inhibition Ratio (%) 6 h: 70%
  Inhibition Ratio (%) 24 h: 38%

## Cc1cc(COC2CN(c3cccc(COC(=O)NC(=N)N)c3F)C2)cc(C)n1 [Example 555]
[1]
  IC50: 20 nM
Rat VAP-1 enzyme (SSAO)
  IC50: 3.5 nM
[2]
  Inhibition Ratio (%) 1 h: 67%
  Inhibition Ratio (%) 3 h: 69%
  Inhibition Ratio (%) 6 h: 54%
  Inhibition Ratio (%) 24 h: 27%
